Results reported in US20130184318A1, “[…] […]” (THE REGENTS OF THE UNIVERSITY OF CALIFORNIA, priority 2010, published 2013).

Legend:
Format in all cases: cell-based, human
HTM cells [1] = assay: Confocal/fluorescence imaging of HTM cell morphology on latrunculin exposure and recovery; conditions: for cell morphology: 0.2 μM latrunculin
Experimental: (§1) Primary HTM cells were obtained from corneal buttons from donors with no ocular diseases and that were not suitable for transplant. […] Cells were plated onto glass surfaces at 100,000 cells per surface. A similar number of cells were plated onto the biomimetic PA hydrogels. The cells were allowed to attach to the surfaces for 12 hours prior to the start of the experiment. Fluorescent images of the actin cytoskeleton were obtained from fixed cells stained with phalloidin-AlexaFluor 568 (Invitrogen, Carlsbad, Calif.). Fluorescent images of the cell membrane were obtained from live cells stained with wheat germ agglutinin-AlexaFluor 488 (Invitrogen).
Latrunculin B influences cytoskeleton of cells by associating with actin. […] The micrographs were taken with a confocal AFM. The live HTM cells were labeled with fluorescent wheat germ agglutinin and the latrunculin was added. […] Measurements of compliance were taken prior to the introduction of drug, and at the 30 minute time point. The cells had moduli of 2.0 kPa prior to addition of latrunculin, and 0.07 kPa at 30 minutes. The concentration of drug used was not in the range of 1-100 μM used in other published studies. It should be noted, however, that the higher ranges (100 μM) were topically applied to primate eyes (20 μl) in one bolus while our studies had the drug present during the entire one hour time period. The effects of the latrunculin were profound.
The morphology of HTM cells adhered to glass and the glaucomatous (pathomimetic)polyacrylamide gel (PPA, 92.2±10.4 kPa) substrates were predominantly elongated with pronounced asymmetry. On the homeomimetic polyacrylamide gel (HPA, 4.0±1.5 kPa), the cells were predominantly adhered in a radially symmetric fashion and were considerably rounder in appearance (See, FIGS. 6 and 10). When exposed to Lat-B, HTM cells on glass and PPA substrates responded in a similar fashion to other cell types previously studied (Spector, et al., (1983) Science 219:493-495, Wakatsuki, et al., (2001) Journal of Cell Science 114:1025-1036, Coue, et al., (1987) Febs Letters 213:316-318; Cha, et al., (2004) J Cell Sci 117:3353-3365). Lat-B disrupted the dynamic process of actin filament maintenance and the actin polymerization process rapidly shifted towards net depolymerization. […] These strands resembled retraction fibers observed during mitosis (Sanger, et al., (1984) Cell Tissue Res 237:409-417). Similar cable-like filaments have also been reported by Evanko, et. al., (J Histochem Cytochem (2009) 57:1041-1060).

HTM cells [2] = assay: AFM measurement of Young's modulus (compliance) of HTM cells before and after Lat-B exposure; conditions: for HTM Cell Modulus on Substrates, Glass: glass (GPa range), pre-dose 2.7 ± 0.7; for HTM Cell Modulus on Substrates, Homeomimetic: homeomimetic gel E = 4.0 ± 1.5 kPa, pre-dose 1.6 ± 0.2; for HTM Cell Modulus on Substrates, Pathomimetic: pathomimetic gel E = 92 ± 10 kPa, pre-dose 1.8 ± 0.5
Experimental: as §1
The PA gels were then adhered to UV-cleaned, glass-bottom petri dishes (World Precision Instruments, Sarasota, Fla.), incubated in HTM medium for 12 hours, and then coated with a mixture of fibronectin and collagen (FNC coating mix, Athena Environmental Sciences, Baltimore, Md.) for 10 minutes prior to cell seeding. HTM cells were added to these dishes in media and were allowed to incubate overnight to ensure proper cell adhesion to the FNC-coated PA gels. Immediately prior to AFM measurements, the HTM media was rinsed away with PBS. This was done because fetal bovine serum is known to inactivate Lat-B (Spector, et al., (1989) Cell Motil Cytoskeleton 13:127-144).
The contact mechanics of the PA substrates and the HTM cells were studied with two MFP-3D atomic force microscopes (Asylum Research, Santa Barbara, Calif.) interfaced with either an Olympus (FluoView 1000 laser scanning confocal microscope, Olympus America, Center Valley, Pa.) or Zeiss (Axio Observer A1, Carl Zeiss, Thornwood, N.Y.) inverted microscope. No differences in contact mechanics of the samples were observed between the two instruments. The AFM probes in the substrate studies were silicon nitride cantilevers (PNP-TR-50, k=60 pN/nm, NanoAndMore, Lady's Island, S.C.) with a square pyramid tip incorporated at the free end. For each experiment, the actual spring constant of the cantilever was determined by monitoring the amplitude of the lever's thermal vibration at resonance and applying the equipartition theorem (Hutter, et al., (1993) Review of Scientific Instruments 64:3342-3342). Probe indentation measurements were obtained over the central region of the cell where the nucleus was present.
Compliance of the HTM cells and PA gels was quantified by fitting the force, generated by the indenting probe, vs. the depth of indentation with equation 1 (Hertz, H. (1882) J. Reine Angew. Mathematik 92:156-171; Love, A. E. H. (1939) Quarterly Journal of Mathematics 10:161-175; Harding, et al., (1945) Proceedings of the cambridge philosophical society 41:16-26).
Where α is the half-angle opening of the square pyramid tip (35°), ν is Poisson's ratio, E is Young's modulus and δ is the penetration depth. By using Eq. 1, we have assumed that the HTM cells and PA gels were perfectly elastic, isotropic, and infinitely thick and that the square pyramid indenter was a rigid cone. A Poisson ratio of 0.5 (incompressible) for both the cell and polyacrylamide gels was assigned, since both samples were well hydrated. This allows a solution for Young's modulus of the sample.
Application of Eq. 1 is not straightforward, as both the cells and gels were not perfectly elastic or isotropic, they were viscoelastic and anisotropic, and they were also not infinitely thick. However, in the limit of small indentations both the cells and gels were well described by Eq. 1. The method proposed by Mahaffey et al., (Phys Rev Lett (2000) 85:880-883) was applied to quantitatively define the indentation depth over which these viscoelastic materials behave as elastic bodies. This is accomplished by plotting experimental values of E vs. δ during tip indentation and noting the penetration depth over which E remains constant. […]

myocilin = assay: Western blot of myocilin protein in HTM 631 cells; conditions: HTM 631 cells on 400 nm pitch surfaces with dexamethasone
Experimental: Protein concentration is assessed using the Bradford protein assay. Samples of 10 μg are electrophoresed on a 10% polyacrylamide gel and the protein transferred to nitrocellulose membranes as previously described^141. Antibodies for the proteins being detected are commercially available or publicly described. A chemiluminescent detection method is used with peroxidase linked antibodies to mouse, chick or rabbit in conjunction with the LumiGLO chemiluminesent kit. The banding pattern obtained on the x-ray film is quantified using ImageQuant software with the actin band serving as a normalized reference for protein loading. Imaging can also be done using a CCD camera without the use of x-ray film.

Structure (SMILES)	cell morphology (HTM cells [1]; 30 minutes, listed as Latrunculin)	cell morphology (HTM cells [1]; 30 minutes, listed as latrunculin)	cell morphology (HTM cells [1]; one hour)	time to return to pre-exposure morphology after rinsing Lat-B (HTM cells [1]; glass and PPA substrates)	modulus of the cells (HTM cells [2]; 0.2 μM latrunculin, measured after 30 minutes, 2.0 kPa before addition)	cell resistance to deformation compared to pre-exposure levels (HTM cells [2]; at 30 minutes of Lat-B exposure (0.2 μM))	HTM Cell Modulus on Substrates, Glass (HTM cells [2]; 90 min recovery after 30 min 0.2 μM Lat-B and removal)	HTM Cell Modulus on Substrates, Glass (HTM cells [2]; 90 min recovery after 30 min 0.2 μM Lat-B and removal, listed as Lat-B)	HTM Cell Modulus on Substrates, Glass (HTM cells [2]; 270 min recovery after 30 min 0.2 μM Lat-B and removal)	HTM Cell Modulus on Substrates, Glass (HTM cells [2]; 270 min recovery after 30 min 0.2 μM Lat-B and removal, listed as Lat-B)	HTM Cell Modulus on Substrates, Homeomimetic (HTM cells [2]; 90 min recovery after Lat-B)	HTM Cell Modulus on Substrates, Homeomimetic (HTM cells [2]; 270 min recovery after Lat-B)	percentage difference in cell elastic modulus, PPA to HPA (HTM cells [2]; maximum, at 90 minutes of recovery from Lat-B)	HTM Cell Modulus on Substrates, Pathomimetic (HTM cells [2]; 90 min recovery after Lat-B)	HTM Cell Modulus on Substrates, Pathomimetic (HTM cells [2]; 270 min recovery after Lat-B)	increase in myocilin protein expression (myocilin)
C/C1=C/C(=O)O[C@@H]2C[C@@H](CC[C@H](C)/C=C\CC1)O[C@@](O)([C@@H]1CSC(=O)N1)C2 [Latrunculin B]	rounding of the cells	starting to round up	completely rounded	60-90 minutes	0.07 kPa	substantially decreased	11.0 ± 2.3 kPa	11.0±2.3 kPa	2.3 ± 0.2 kPa	2.3±0.2 kPa	2.3 ± 0.2 kPa	1.7 ± 0.5 kPa	approximately 54%	4.0 ± 1.8 kPa	2.0 ± 0.4 kPa	–
C[C@@H]1C[C@H]2[C@@H]3CCC4=CC(=O)C=C[C@]4(C)[C@@]3(F)[C@@H](O)C[C@]2(C)[C@@]1(O)C(=O)CO [dexamethasone]	–	–	–	–	–	–	–	–	–	–	–	–	–	–	–	19 fold
